Source: patent US8257714B2, “Compositions and methods for immunotherapy of cancer and infectious diseases” (priority 2003, dated 2012)

Assays:
Plasmodium yoelii = assay: Malaria in mice; type: in vivo, C57BL/6 mice; conditions: 40 mg/kg i.p. Days 1-5
Description: Groups of male C57BL/6 mice were inoculated i.v. on Day 0 with an infectious dose of Plasmodium yoelii. Groups of mice were administered, by i.p. injection, one of three concentrations of the test material (0.1, 1.0 or 10.0 ng/mouse/day) or vehicle on Day 1 and again on Days 2 through 5, for a total of five doses. An additional assay control group of mice was administered approximately 40 mg of Chloroquine per kg of body weight by i.p. injection on Days 1 through 5 as well.

[1] = tested on: DC-activity induced by ARP preparations; assay: Effect of divalent cations on DC-activity of ARP; type: cell-based, mouse; conditions: mM-μM concentration range
From the text: Some differences exist in the interaction of copper and zinc with ARP and must be explored further. […] The former was inhibited by both-calcium and magnesium ions, while the latter—only by magnesium ions.

Candida albicans = Candida albicans infection in mice; type: in vivo, CDI mice
Description: Groups of female CDI mice were inoculated intravenously (i.v.) on Day 0 with an infectious dose of Candida albicans calculated to provide 60-100% mortality in the control group. Groups of mice were administered, by i.p. injection, one of three concentrations of the test material (0.1, 1.0 or 10.0 ng/mouse/day) or vehicle on Day 0, approximately 1.5 hours following infectious challenge, and again on Days 1 through 4, for a total of five doses. An additional assay control group of mice was administered approximately 80 mg of fluconazole per kg of body weight by oral gavage approximately 1, 24, 48 and 72 hours following infectious challenge.

[2] = tested on: freshly isolated dendritic cells (CD11c+ splenocytes); assay: Dendritic cell (DC) assay: IL12 release from freshly isolated dendritic cells; type: cell-based, BALB/c mice; conditions: tested for synergism and inhibition
From the text: In a preferred embodiment, dendritic cell (DC) assay is used to follow interleukin-12 (IL-12) release from freshly isolated dendritic cells as an index of DC activation (see section 12.3). […] Briefly, by way of example but not limitation, a DC assay can be carried out as follows: freshly isolated dendritic cells (CD11c^+ splenocytes, e.g., isolated from the spleens of BALB/c mice within ten hours of assaying the activity) are suspended at a density of 0.5×10^6 cells per mL in cytokine supplemented culture media (GM-CSF, 1.0 ng/ml; IL-4, 1.0 ng/ml; IFNg, 3.0 ng/ml; anti mouse CD40, 0.5 mg/ml). […] Mouse IL-12 release from the dendritic cells (CD11c^+ splenocytes) is then measured using ELISA.
To follow the activity in semi-purified preparations of BEX, an assay which follows IL12 release from freshly isolated dendritic cells (DCs) as an index of DC activation was developed. This activity is highly correlated with both NK-CMC in vitro and anti-tumor activity in vivo.
DCs were isolated from the spleens of male BALB/c mice 8-12 weeks of age (Harlan Bioproducts for Science, Indianapolis, Ind.), using the magnetic assisted cell separation (MACS) system purchased from Miltenyi Biotech. In summary: Spleens were aseptically removed from mice and placed into a petri dish containing 5 mL holding media (DMEM/F12 supplemented with 10% FCS and antibiotics). Each spleen was then injected with ˜0.5 mls collagenase D solution (1 mg/mL in 10 mM Hepes-NaOH, pH 7.4, 150 mM NaCl, 5 mM MgCl2, 1.8 mM CaCl2), placed into 5-10 mL collagenase D, cut into 5-6 pieces and incubated at 37° C. for 45-60 min. Collagenase-digested spleens were then processed with glass slides and passed through a 70 μm nylon mesh cell strainer. After the strainer was flushed with 40 mL culture media, cells were centrifuged (8 min @ 200×G), suspended in 1 mL PBS and subjected to red blood cell lysis by incubating the cell suspension for 5 min at room temperature in 10 mL lysis buffer (155 mM NH4Cl, 10 mM KHCO3, 0.1 mM EDTA), followed by dilution in PBS to 50 mL and centrifugation (8 min @ 200×g). The splenocytes were then suspended in 10 mL MACS buffer (PBS pH 7.2, supplemented with 2 mM EDTA and 0.5% BSA), passed through a 40 μm nylon mesh cell strainer which was flushed with 40 mL MACS buffer. A preliminary cell count was taken at this time, prior to centrifugation (8 min @ 200×G). The splenocytes were suspended at a density of 10^8 cells per 400 μL MACS buffer. Paramagnetic MicroBeads coated with anti-CD11c^+ antibody were mixed with the splenocyte suspension (100 μL per 10^8 cells), incubated at +4° C. for 15 min, washed, suspended in 1.0 mL MACS buffer and passed through a MS+ separation column placed within a strong magnetic field. CD11c^+ cells were retained in the column whereas CD11c^− cells were washed off the column as the flow-through cell fraction. CD11c^+ cells were then collected by removing the column out of the magnetic field and flushing the column twice with 1 mL of MACS buffer. CD11c^+ cells were washed once with culture media and suspended at a density of 0.5×10^6 cells per mL in cytokine supplemented culture media {DMEM/F12 supplemented with 10% FCS and gentamicin containing mouse GM-CSF (1 ng/mL), mouse IL-4 (1 ng/mL), mouse IFNγ (3 ng/mL) and anti mouse CD40 (0.5 mg/mL)}.
Mouse IL12 release from CD11c^+ splenocytes was measured using ELISA. Briefly, CD11c+ cell culture supernatants were sampled following an overnight incubation (usually 15-18 hrs). Media samples ([…]) were added to ELISA plates coated with anti mouse IL12 (p70) capture antibody (R&D #MAB419; 250 ng in 100 μL per well) and incubated either at 37° C. or room temperature for 2 hrs. The ELISA plates were washed extensively with wash buffer after which 100 μL per well of detection antibody/detection reagent (biotinylated anti-mouse IL12; R&D #BAF419 at 50 ng/mL and streptavidin-HRP) was added. […]

Mouse sarcoma 180 cells = assay: NK cell-mediated cytotoxicity (NK-CMC) assay, LGL/S180 co-culture; type: cell-based
Description: In one embodiment, a NK cell assay is used to assess ARP-induced cytotoxic activity of NK-like cells (see section 12.2). Briefly, by way of example but not limitation, a NK cell assay can be carried out as follows: large granular lymphocytes (LGLs) are co-cultured with tumor cells at various ratios (effector to target ratio) for four days at 37° C., 5% CO2. […] The culture is terminated at the end of day 4 and vitally stained using a MTT cell viability quantification assay (see Mossman, T. J. Immunol. Methods 65: 55 (1983); and Sigma Chemical MTT (M5655) product application note). Culture media is aspirated and the remaining cells are washed and replaced with DMEM/F12 plus FCS, containing MTT. The cells are further incubated for 4-5 hours at 37° C. Absorbance is measured with the aid of a plate reader. Decreased absorbance indicated a decrease in the number of viable cells per well (i.e., cytotoxicity). Absorbance is measured again after the MTT is solubilized by replacement of the medium with 2-propanol containing HCl, which gives a uniform color throughout the well. NK-inducing activity is calculated relative to negative (PBS/BSA) and positive (internal standard) controls.
Spleens (10-15 per experiment) were aseptically removed from male Balb/C mice 6-10 weeks of age. Splenocytes were “squeezed” out of spleens using 2 sterile glass microscope slides. Cells were collected in approximately 10 ml of DMEM/F 12 containing 10% fetal calf serum (FCS) and gentamicin (50 μg/ml). Single cell suspensions were generated by passing collected cells through a 70 μm nylon mesh screen. After washing the cell pellet once with PBS (centrifuged at 675×g for 5 min), red blood cells were lysed by brief hypotonic shock (i.e. exposure to sterile distilled, deionized water, followed immediately with appropriate volumes of 10×PBS to return to isotonicity). Remaining cells were centrifuged and resuspended in DMEM/F12+10% FCS and transferred to 75 cm^2 flasks each containing 25 mls DMEM/F12+10% FCS (cells from 5 spleens per flask). The cells were incubated for 60 min. at 37° C. to selectively remove readily adherent cells (mainly fibroblasts and macrophages). After the incubation, the flasks were gently shaken and the non-adherent cells were removed, pelleted by centrifugation, and resuspended in DMEM/F12 (no supplements) (1.0 mL/10^8 cells). A 1.0 mL volume of these cell suspensions were carefully layered onto a 70%/60%/40% (2 mL/4 mL/4 mL) Percoll™ gradients in 15 ml centrifuge tubes and centrifuged for 30 min at 675×G. The cells which sediment at the 40/60 interface represent primarily large granular lymphocytes (LGLs), enriched with NK cells. These cells were carefully removed with a pasteur pipet, centrifuged, washed once with PBS and resuspended in approximately 5 mL DMEM/F12 supplemented with gentamicin (50 μg/mL) and 10% fetal calf serum. Cell counts and appropriate dilutions of LGL cells were made with these cells, as described below. For convenience this LGL cell preparation is interchangeably referred to as NK cells.
Mouse sarcoma 180 cells were seeded into 96 well plates at a density of 5×10^3 cells per well in 100 μl DMEM/F12, supplemented with 10% FCS and gentamicin (50 μg/mL). […] NK cells were added in 100 μL of supplemented DMEM/F12 at designated densities: 0 NK cells/well; 5×10^4 NK cells/well (1:10 target/effector ratio); 1.25×10^5 NK cells/well (1:25 target/effector ratio); 2.5×10^5 NK cells/well (1:50 target/effector ratio); and, 5×10^5 NK cells/well (1:100 target/effector ratio). (Note: routinely, only the 1:50 and 1:100 ratios were used for screening purposes. IL2 was added as a media supplement with final concentration of 125 U/mL.). Co-cultures were incubated for 4 days at 37° C., 5% CO2, and terminated and vitally stained using a MTT cell viability quantification assay (see Mossman, T. J. Immunol. Methods 65:55 (1983); and Sigma Chemical MTT (M5655) product application note). […]

`CCN(CC)CCCC(C)Nc1ccnc2cc(Cl)ccc12` (stereo not shown) [Chloroquine] was tested, and the “Parasitized Erytthrocytes %” value (Plasmodium yoelii) was 12% and the “Survival (Days) ± SD” value (Plasmodium yoelii) was 37.0 ± 0.7 days.

`[Ca+2].[Cl-].[Cl-]` [CaCl2] was tested, and the “inhibition of DC-activity of crude ARP preparations” value (“inhibition” for short) [1] was “did not”.

`[Cl-].[Cl-].[Mg+2]` [MgCl2] was tested, and the “inhibition” value [1] was “did not”.

`[Cl-].[Cl-].[Zn+2]` [ZnCl2] was tested, and the “inhibition” value [1] was “showed inhibition of activity”.

`[Cl][Cu][Cl]` [CuCl2] was tested, and the “inhibition” value [1] was “showed inhibition of activity”.

For `OC(Cn1cncn1)(Cn1cncn1)c1ccc(F)cc1F` [Fluconazole, fluconazole], the “Percent Mortality” value (Candida albicans; ~80 mg/kg oral gavage) was 0% and the “Mean Survival Time” value (Candida albicans; ~80 mg/kg oral gavage 1, 24, 48 and 72 hours after challenge, all animals) was 14.0 days.

B1: IFNγ: Interferon-gamma (protein, UniProt P01580 23-155, looked up)
Interferon gamma: HGTVIESLESLNNYFNSSGIDVEEKSLFLDIWRNWQKDGDMKILQSQIISFYLRLFEVLKDNQAISNNISVIESHLITTFFSNSKAKKDAFMSIAKFEVNNPQVQRQAFNELIRVVHQLLPESSLRKRKRSRC
For B1, the “DC mIL12 Release” value [2] was “−”, the “NK-CMC on direct addition” value (Mouse sarcoma 180 cells; added directly to NK/S180 co-cultures) was “slight increase” and the “maximal response in the presence of IL-2” value (Mouse sarcoma 180 cells; table footnote) was “^6Weakly activates NK cells in the presence of IL-2 (maximal response <50% cytotoxicity)”.

B2: IL-10: interleukin (protein, UniProt P18893 19-178, looked up)
Interleukin-10: SRGQYSREDNNCTHFPVGQSHMLLELRTAFSQVKTFFQTKDQLDNILLTDSLMQDFKGYLGCQALSEMIQFYLVEVMPQAEKHGPEIKEHLNSLGEKLKTLRMRLRRCHRFLPCENKSKAVEQVKSDFNKLQDQGVYKAMNEFDIFINCIEAYMMIKMKS
With B2 the “DC mIL12 Release” value [2] was “inhibitory” and the “NK-CMC Activity” value (Mouse sarcoma 180 cells; wide range of concentrations, presence and absence of IL-2 (125 U/ml)) was “−”.
